Experimental data: patent US6423729B1, “Therapeutic or prophylactic agent for glomerulopathy” (Shionogi & Co., Ltd., priority 1997, dated 2002)

Test system: not given
Assay: not given

First: CC(C)[C@@H](NS(=O)(=O)c1ccc(-c2nnn(-c3ccc(F)cc3)n2)s1)C(=O)O [Compound 97]
Second: CSc1ccc(-c2nnn(-c3ccc(S(=O)(=O)N[C@@H](C(=O)O)C(C)C)cc3)n2)cc1 [Compound 120]
The melting point of the first is lower: 184 to 186 °C for the first, 194 to 196 °C for the second.

`O=C(O)[C@@H](Cc1ccccc1)NS(=O)(=O)c1ccc(-n2nnc(-c3ccccc3)n2)cc1` [Compound 115] and `O=C(O)[C@@H](Cc1ccccc1)NS(=O)(=O)c1ccc(-n2nnc(-c3ccc(F)cc3)n2)cc1` [Compound 105] cannot be ordered by melting point: 191 to 192 °C for the first, 190 to 192 °C for the second.

First: CC(C)[C@@H](NS(=O)(=O)c1ccc(-c2ncc(-c3ccccc3)o2)s1)C(=O)O [Compound 98]
Second: CCc1ccc(-c2nnn(-c3ccc(S(=O)(=O)N[C@@H](C(=O)O)C(C)C)cc3)n2)cc1 [Compound 107]
The melting point of the first is higher: 220 to 223 °C for the first, 186 to 187 °C for the second.

Compared with `CCCCc1ccc(-c2nnn(-c3ccc(S(=O)(=O)N[C@@H](C(=O)O)C(C)C)cc3)n2)cc1` [Compound 121], `CCc1ccc(-c2nnn(-c3ccc(S(=O)(=O)N[C@H](CC(C)C)C(=O)O)cc3)n2)cc1` [Compound 113] is lower in melting point: 191 to 193 °C for the first, 153 to 154 °C for the second.

For `O=C(O)[C@@H](Cc1c[nH]c2ccccc12)NS(=O)(=O)c1ccc(-n2nnc(-c3ccc(F)cc3)n2)cc1` [Compound 111], the melting point was 113 to 115 °C.

Target: T1, MMP-2 (Homo sapiens, UniProt P08253)
T1 construct: purchased Yagai (Yamagata pref., Japan)
T1 sequence (P08253 110-660): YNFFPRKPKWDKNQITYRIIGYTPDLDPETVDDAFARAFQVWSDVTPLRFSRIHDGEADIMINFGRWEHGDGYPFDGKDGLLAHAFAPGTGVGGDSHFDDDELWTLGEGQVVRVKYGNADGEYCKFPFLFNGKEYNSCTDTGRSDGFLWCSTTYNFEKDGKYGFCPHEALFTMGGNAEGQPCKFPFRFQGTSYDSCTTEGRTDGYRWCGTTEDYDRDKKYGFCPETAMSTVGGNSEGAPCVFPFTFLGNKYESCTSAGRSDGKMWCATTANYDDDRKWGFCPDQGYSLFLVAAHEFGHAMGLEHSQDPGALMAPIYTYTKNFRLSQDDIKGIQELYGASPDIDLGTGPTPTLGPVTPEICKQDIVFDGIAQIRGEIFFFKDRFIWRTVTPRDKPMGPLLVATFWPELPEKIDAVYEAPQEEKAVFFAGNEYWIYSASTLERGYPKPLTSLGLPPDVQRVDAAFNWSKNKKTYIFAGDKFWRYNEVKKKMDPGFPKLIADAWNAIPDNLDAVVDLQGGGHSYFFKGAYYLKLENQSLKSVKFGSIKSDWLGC
Assay: Assay for inhibitory activity against MMP-2
Format: biochemical
Experimental: (§1) Assay for Inhibitory Activities of MMP-9 and MMP-2
(§2) The enzymatic activity was analyzed on the method described by Knight, C. G., et al. (C. Graham Knight., Frances Willenbrock and Gillian Murphy: A novel coumarin-labelled peptide for sensitive continuous assays of the matrix metalloproteinases. FEBS Lett., 296 (1992) 263-266).
MMP-2 was purchased from Yagai (Yamagata pref., Japan).
(§3) MOCAc-Pro-Leu-Gly-Leu-A2pr(Dnp)-Ala-Arg-NH2 as a substrate was purchased from Petide Institute(Osaka pref., Japan). This substrate was dissolved in DMSO at a concentration of 1 mM.
(§4) Reaction buffer consists of 50 mM Tris-HCl buffer (pH 7.5) containing 10 mM CaCl2, 0.3 M NaCl, 0.005% Brij35 and 0.01% NaN3.
Assay Method of Inhibitory Activity Against MMP-2:
(§5) 1.0 μl of a tested compound in DMSO is added to 48.0 μl of a reaction buffer containing 0.05 μl of an enzyme solution. After standing for 60 minutes at room temperature, the reaction was started by adding 1.0 μl of a substrate solution. After incubation for 60 minutes at room temperature, 100 μl of 3% (v/v) AcOH for reaction stopping and measured a fluorescence with excitation and emission at 320 nm and 405 nm, respectively (Spectrophotofluorometer; Fluoroscan Ascent (Labsystem)).
(§6) The measurement of the inhibitory activities (IC50) was carried out in a following four methods;
(§7) A) Reaction with substrate, enzyme and inhibitor
(§8) B) Reaction with substrate and inhibitor, without enzyme
(§9) C) Reaction with substrate and enzyme, without inhibitor
(§10) D) Reaction with substrate only
(§11) IC50 values were calculated by using a following formula and each fluorescence values of above four methods (A to D).
(§12) % inhibition={1−(A−B)/(C−D)}×100
(§13) IC50 means the concentration required to inhibit 50% of the enzyme activity.

Point of comparison: `CC(C)[C@@H](NS(=O)(=O)c1ccc(-c2ncc(-c3ccccc3)o2)s1)C(=O)O` [Compound 98], IC50 95.3 nM. Against it:
- Cc1ccc(-c2ccc(-c3ccc(S(=O)(=O)N[C@@H](C(=O)O)C(C)C)cc3)s2)cc1 [Compound 103] — 16-fold lower, 6.12 nM
- CC(C)[C@@H](NS(=O)(=O)c1ccc(-c2nnn(-c3ccc(F)cc3)n2)s1)C(=O)O [Compound 97] — 6.1-fold lower, 15.6 nM
- O=C(O)[C@@H](Cc1ccccc1)NS(=O)(=O)c1ccc(-n2nnc(-c3ccccc3)n2)cc1 [Compound 115] — 1.9-fold higher, 181 nM
- CSc1ccc(-c2nnn(-c3ccc(S(=O)(=O)N[C@@H](C(=O)O)C(C)C)cc3)n2)cc1 [Compound 120] — 100-fold lower, 0.919 nM
- CCCCc1ccc(-c2nnn(-c3ccc(S(=O)(=O)N[C@@H](C(=O)O)C(C)C)cc3)n2)cc1 [Compound 121] — 170-fold lower, 0.561 nM
- CCc1ccc(-c2nnn(-c3ccc(S(=O)(=O)N[C@H](CC(C)C)C(=O)O)cc3)n2)cc1 [Compound 113] — 17-fold lower, 5.7 nM
- O=C(O)[C@@H](Cc1ccccc1)NS(=O)(=O)c1ccc(-n2nnc(-c3ccc(F)cc3)n2)cc1 [Compound 105] — 2.3-fold lower, 41.4 nM
- CCc1ccc(-c2nnn(-c3ccc(S(=O)(=O)N[C@@H](C(=O)O)C(C)C)cc3)n2)cc1 [Compound 107] — 27-fold lower, 3.51 nM
- O=C(O)[C@@H](Cc1c[nH]c2ccccc12)NS(=O)(=O)c1ccc(-n2nnc(-c3ccc(F)cc3)n2)cc1 [Compound 111] — 8.9-fold lower, 10.7 nM

Target: T2, MMP-9 (Homo sapiens, UniProt P14780)
T2 construct: made in house; host or cells: HT1080 human fibrosarcoma cells; endogenous protein secreted after TPA treatment and purified from conditioned medium
T2 sequence (P14780 107-707 limits assumed): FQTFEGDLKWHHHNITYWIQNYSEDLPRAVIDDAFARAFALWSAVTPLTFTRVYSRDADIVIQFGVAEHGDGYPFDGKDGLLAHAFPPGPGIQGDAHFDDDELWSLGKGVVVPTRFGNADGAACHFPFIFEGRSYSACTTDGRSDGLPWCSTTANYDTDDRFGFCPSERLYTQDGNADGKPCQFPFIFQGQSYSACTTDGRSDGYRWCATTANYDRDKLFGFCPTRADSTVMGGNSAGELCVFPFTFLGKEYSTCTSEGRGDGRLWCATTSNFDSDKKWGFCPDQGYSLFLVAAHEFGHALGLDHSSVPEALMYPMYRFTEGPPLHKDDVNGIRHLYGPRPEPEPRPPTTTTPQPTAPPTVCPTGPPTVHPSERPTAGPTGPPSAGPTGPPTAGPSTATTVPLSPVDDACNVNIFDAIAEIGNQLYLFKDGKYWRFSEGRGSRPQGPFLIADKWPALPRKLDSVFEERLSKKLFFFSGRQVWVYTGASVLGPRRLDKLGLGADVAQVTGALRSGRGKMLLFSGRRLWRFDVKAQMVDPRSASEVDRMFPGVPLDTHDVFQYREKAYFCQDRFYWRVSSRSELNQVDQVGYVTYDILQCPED
Assay: Assay for inhibitory activity against MMP-9
Format: biochemical
Experimental: as §1, §2
MMP-9 was purified by using a combination of procedures described in previous reports as follows. Yasunori Okada, Yukio Gonoji, Katsumi Naka, Katsuro Tomita, Isao Nakanishi, Kazushi Iwata and Taro Hayakawa: Matrix metalloproteinase 9 (92-kDa gelatinase/type IV collagenase) from HT1080 human fibrosarcoma cells. Purification and activation of the precursor and enzymic properties. J. Biol. Chem., 267 (1992) 21712-21719. Yasunori Okada, Tatsuhisa Morodomi, Jan J, Enghild, Ko Suzuki, Atsushi Yasui, Isao Nakanishi, Guy Salvesen and Hideaki Nagase: Matrix metalloproteinase 2 from human rheumatoid synovial fibroblasts. Purification and activation of the precursor and enzymic properties. Eur. J. Biochem. 194 (1990) 721-730. Robin V Ward, Rosalind M Hembry, John J Reynolds and Gillian Murphy: The purification of tissue inhibitor of metalloproteinase-2 from its 72 kDa progelatinase complex. Biochem. J. 278 (1991) 179-187.
Briefly, human fibrosarcoma ATCC HT1080 cell line was cultured to confluent in Dulbecco's Modified Medium (DMEM) containing 10% fetal-calf serum at 37° C. for 48 hours. Subsequently, the medium of confluent culture was changed to serum-free DMEM medium. To obtain MMP-9, Phorbol-12-myristate-13-acetate (TPA) must be added to this serum-free DMEM medium at a concentration of 50 ng/ml. The TPA treated medium was centrifuged at 3000 rpm for 15 min and the supernatant was concentrated to 450 ml by a Toyo-Roshi UP-20 apparatus with an ultrafiltration membrane. Then, proMMP-9 in this concentrated solution was purified by using columns of Gelatin-Sepharose and Concanavalin A-Sepharose. The pool containing proMMP-9 was dialyzed, concentrated (Toyo-Roshi UP-20) and applied to columns of Sephacryl S-200 and Green A matrix for the separation from TIMPs. The obtained proMMP-9 fraction was activated by TPCK-Trypsin (final conc. […] reaction mix.) for the assay.
as §3, §4
Assay Method of Inhibitory Activity Against MMP-9:
as §5, with “0.08” for “0.05”
as §6, §7, §8, §9, §10, §11, §12, §13

Point of comparison: `Cc1ccc(-c2ccc(-c3ccc(S(=O)(=O)N[C@@H](C(=O)O)C(C)C)cc3)s2)cc1` [Compound 103], IC50 27.8 nM. Against it:
- CC(C)[C@@H](NS(=O)(=O)c1ccc(-c2nnn(-c3ccc(F)cc3)n2)s1)C(=O)O [Compound 97] — 4.9-fold higher, 136 nM
- O=C(O)[C@@H](Cc1ccccc1)NS(=O)(=O)c1ccc(-n2nnc(-c3ccccc3)n2)cc1 [Compound 115] — 170-fold higher, 4610 nM
- CC(C)[C@@H](NS(=O)(=O)c1ccc(-c2ncc(-c3ccccc3)o2)s1)C(=O)O [Compound 98] — 28-fold higher, 787 nM
- CSc1ccc(-c2nnn(-c3ccc(S(=O)(=O)N[C@@H](C(=O)O)C(C)C)cc3)n2)cc1 [Compound 120] — 4.8-fold lower, 5.82 nM
- CCCCc1ccc(-c2nnn(-c3ccc(S(=O)(=O)N[C@@H](C(=O)O)C(C)C)cc3)n2)cc1 [Compound 121] — 5.3-fold higher, 148 nM
- CCc1ccc(-c2nnn(-c3ccc(S(=O)(=O)N[C@H](CC(C)C)C(=O)O)cc3)n2)cc1 [Compound 113] — 2.6-fold higher, 71.8 nM
- O=C(O)[C@@H](Cc1ccccc1)NS(=O)(=O)c1ccc(-n2nnc(-c3ccc(F)cc3)n2)cc1 [Compound 105] — 11-fold higher, 304 nM
- CCc1ccc(-c2nnn(-c3ccc(S(=O)(=O)N[C@@H](C(=O)O)C(C)C)cc3)n2)cc1 [Compound 107] — 3.4-fold lower, 8.25 nM
- O=C(O)[C@@H](Cc1c[nH]c2ccccc12)NS(=O)(=O)c1ccc(-n2nnc(-c3ccc(F)cc3)n2)cc1 [Compound 111] — 3.7-fold higher, 104 nM
